Measured values as given in patent publication US6872805B2 (Bristol-Myers Squibb Company, priority 2000, dated 2005).
Where two headings read alike, the source gives them in different places.

Key:
[1] = molecular target: HCV NS3/4A protease complex (Hepatitis C virus genotype 1a, UniProt P27958, C1454S/C1711G); assay: Recombinant HCV NS3/4A protease complex FRET peptide assay (strain not stated); format: biochemical; details: IC50, NS3/4A protease enzyme assay, strain not stated; activity ranges
Sequence of HCV NS3/4A protease complex (P27958 1027-1711, stated change not applied): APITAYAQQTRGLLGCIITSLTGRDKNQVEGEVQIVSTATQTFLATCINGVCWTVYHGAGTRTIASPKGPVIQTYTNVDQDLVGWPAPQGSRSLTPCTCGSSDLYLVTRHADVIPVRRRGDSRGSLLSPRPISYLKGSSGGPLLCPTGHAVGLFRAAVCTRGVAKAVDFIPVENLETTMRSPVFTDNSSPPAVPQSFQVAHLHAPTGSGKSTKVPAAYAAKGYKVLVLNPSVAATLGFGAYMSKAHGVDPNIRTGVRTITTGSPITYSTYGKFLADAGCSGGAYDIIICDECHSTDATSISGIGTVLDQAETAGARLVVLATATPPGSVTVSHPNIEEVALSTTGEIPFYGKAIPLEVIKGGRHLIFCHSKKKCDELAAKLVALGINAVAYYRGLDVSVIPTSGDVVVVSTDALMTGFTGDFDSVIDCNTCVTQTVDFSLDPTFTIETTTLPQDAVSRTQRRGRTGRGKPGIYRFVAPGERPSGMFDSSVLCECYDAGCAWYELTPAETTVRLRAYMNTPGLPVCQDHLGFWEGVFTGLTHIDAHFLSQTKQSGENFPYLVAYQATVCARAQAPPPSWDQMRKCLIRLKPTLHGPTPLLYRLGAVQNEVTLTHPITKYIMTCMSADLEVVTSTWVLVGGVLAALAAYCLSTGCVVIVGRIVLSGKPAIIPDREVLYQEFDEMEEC
Sequence of HCV NS3/4A protease complex (P27958 1027-1711, stated change not applied): as above

[2] = test system: HCV replicon in Huh7 cells; assay: HCV replicon cell-based assay; parameters: species or system HCV strain 1B; details: Hepatitis C virus, Huh-7, 96 h
In short: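 Genotype 1b subgenomic replicon Huh7 cells exposed to compound 4 days at 37° C in 4% FCS, 0.5% DMSO medium. EC50 from TaqMan RT-PCR of HCV RNA, normalized to total RNA by RiboGreen; CC50 from alamar Blue fluorescence after 4 h.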

[3] = HCV replicon, Huh7 cells, 4 days, activity ranges, read-out: EC50

Compound | IC50 [1] [nM] | EC50 [2, 3] [nM] | EC50 [2] [nM]
C=C[C@@H]1C[C@]1(NC(=O)C1C[C@@H](Oc2cc(-c3ccccc3)nc3cc(OC)ccc23)CN1C(=O)[C@@H](NC(=O)C1(O)CC1)C(C)(C)C)C(=O)NS(=O)(=O)C1CC1 (stereo partly drawn) [Compound 111, 1-{2S-[(1-hydroxy-cyclopropanecarbonyl)-amino]-3,3-dimethyl-butyryl}-4R-(7-methoxy-2-phenyl-quinolin-4-yloxy)pyrrolidine-2S-carboxylic acid (1R-cyclopropanesulfonylaminocarbonyl-2S-vinylcyclopropyl)amide] | < 50 | < 5000 | 
C=C[C@@H]1C[C@]1(NC(=O)C1C[C@@H](Oc2cc(-c3ccccc3)nc3cc(OC)ccc23)CN1C(=O)[C@@H](NC(=O)CF)C(C)(C)C)C(=O)NS(=O)(=O)C1CC1 (stereo partly drawn) [Compound 112, 1-[2S-(2-Fluoro-acetylamino)-3,3-dimethyl-butyryl]-4R-(7-methoxy-2-phenyl-quinolin-4-yloxy)-pyrrolidine-2S-carboxylic acid (1R-cyclopropanesulfonylaminocarbonyl-2S-vinyl-cyclopropyl)-amide] | < 50 |  | < 50
C=C[C@@H]1C[C@]1(NC(=O)C1CC(Oc2cc(-c3ccccc3)nc3cc(OC)ccc23)CN1C(=O)[C@@H](NC(=O)OC)C(C)(C)C)C(=O)NS(=O)(=O)C1CC1 (stereo partly drawn) [Compound 113, {1S-[2S-(1R-cyclopropanesulfonylaminocarbonyl-2S-vinyl-cyclopropylcarbamoyl)-4R-(7-methoxy-2-phenyl-quinolin-4-yloxy)-pyrrolidine-1-carbonyl]-2,2-dimethyl-propyl}carbamic acid methyl ester] | < 50 | < 50 | 
C=C[C@@H]1C[C@]1(NC(=O)C1CC(Oc2cc(-c3ccccc3)nc3cc(OC)ccc23)CN1C(=O)[C@@H](NC(=O)OCc1ccccc1)C(C)(C)C)C(=O)NS(=O)(=O)C1CC1 (stereo partly drawn) [Compound 114, {1S-[2S-(1R-cyclopropanesulfonylaminocarbonyl-2S-vinyl-cyclopropylcarbamoyl)-4R-(7-methoxy-2-phenyl-quinolin-4-yloxy)-pyrrolidine-1-carbonyl]-2,2-dimethyl-propyl}-carbamic acid benzyl ester] | < 50 | < 50 | 
C=C[C@@H]1C[C@]1(NC(=O)C1CC(Oc2cc(-c3ccccc3)nc3cc(OC)ccc23)CN1C(=O)[C@@H](NC(=O)OCC)C(C)(C)C)C(=O)NS(=O)(=O)C1CC1 (stereo partly drawn) [Compound 115, {1S-[2S-(1R-cyclopropanesulfonylaminocarbonyl-2S-vinyl-cyclopropylcarbamoyl)-4R-(7-methoxy-2-phenyl-quinolin-4-yloxy)-pyrrolidine-1-carbonyl]-2,2-dimethyl-propyl}-carbamic acid ethyl ester] | < 50 | < 50 | 
C=C[C@@H]1C[C@]1(NC(=O)C1CC(Oc2cc(-c3ccccc3)nc3cc(OC)ccc23)CN1C(=O)[C@@H](NC(=O)Oc1ccccc1)C(C)(C)C)C(=O)NS(=O)(=O)C1CC1 (stereo partly drawn) [Compound 116, {1S-[2S-(1R-cyclopropanesulfonylaminocarbonyl-2S-vinyl-cyclopropylcarbamoyl)-4R-(7-methoxy-2-phenyl-quinolin-4-yloxy)-pyrrolidine-1-carbonyl]-2,2-dimethyl-propyl}-carbamic acid phenyl ester] | < 50 | < 50 | 
C=C[C@@H]1C[C@]1(NC(=O)C1CC(Oc2cc(-c3ccccc3)nc3cc(OC)ccc23)CN1C(=O)[C@@H](NS(C)(=O)=O)C(C)(C)C)C(=O)NS(=O)(=O)C1CC1 (stereo partly drawn) [Compound 117, 1-(2S-methanesulfonylamino-3,3-dimethyl-butyryl)-4R-(7-methoxy-2-phenyl-quinolin-4-yloxy)-pyrrolidine-2S-carboxylic acid (1R-cyclopropanesulfonylamino-carbonyl-2S-vinyl-cyclopropyl)-amide] | < 50 | < 500 | 
C=C[C@@H]1C[C@]1(NC(=O)C1CC(Oc2cc(-c3ccccc3)nc3cc(OC)ccc23)CN1C(=O)[C@@H](NS(=O)(=O)C1CC1)C(C)(C)C)C(=O)NS(=O)(=O)C1CC1 (stereo partly drawn) [Compound 118, 1-(2S-cyclopropanesulfonylamino-3,3-dimethyl-butyryl)-4R-(7-methoxy-2-phenyl-quinolin-4-yloxy)-pyrrolidine-2S-carboxylic acid (1R-cyclopropanesulfonylamino-carbonyl-2S-vinyl-cyclopropyl)-amide] | < 50 | < 500 | 
C=C[C@@H]1C[C@]1(NC(=O)C1CC(Oc2cc(-c3ccccc3)nc3cc(OC)ccc23)CN1C(=O)[C@@H](NC(=O)CCl)C(C)(C)C)C(=O)NS(=O)(=O)C1CC1 (stereo partly drawn) [Compound 120, 1-[2S-(2-chloro-acetylamino)-3,3-dimethyl-butyryl]-4R-(7-methoxy-2-phenyl-quinolin-4-yloxy)-pyrrolidine-2S-carboxylic acid (1R-cyclopropanesulfonylaminocarbonyl-2S-vinylcyclopropyl)-amide] | < 50 | < 50 | 
C=C[C@@H]1C[C@]1(NC(=O)C1CC(Oc2cc(-c3ccccc3)nc3cc(OC)ccc23)CN1C(=O)[C@@H](NC(=O)C(=O)OC)C(C)(C)C)C(=O)NS(=O)(=O)C1CC1 (stereo partly drawn) [Compound 121, N-{1S-[2S-(1R-cyclopropanesulfonylaminocarbonyl-2S-vinyl-cyclopropylcarbamoyl)-4R-(7-methoxy-2-phenyl-quinolin-4-yloxy)-pyrrolidine-1-carbonyl]-2,2-dimethyl-propyl}-oxalamic acid methyl ester] | < 50 | < 500 | 
C=C[C@@H]1C[C@]1(NC(=O)C1CC(Oc2cc(-c3ccccc3)nc3cc(OC)ccc23)CN1C(=O)[C@@H](NC(=O)OCCF)C(C)(C)C)C(=O)NS(=O)(=O)C1CC1 (stereo partly drawn) [Compound 122, {1S-[2S-(1R-cyclopropanesulfonylaminocarbonyl-2S-vinyl-cyclopropylcarbamoyl)-4R-(7-methoxy-2-phenyl-quinolin-4-yloxy)-pyrrolidine-1-carbonyl]-2,2-dimethyl-propyl}-carbamic acid 2-fluoroethyl ester] | < 50 | < 50 | 
C=COC(=O)N[C@H](C(=O)N1C[C@H](Oc2cc(-c3ccccc3)nc3cc(OC)ccc23)CC1C(=O)N[C@]1(C(=O)NS(=O)(=O)C2CC2)C[C@H]1C=C)C(C)(C)C (stereo partly drawn) [Compound 123, {1S-[2S-(1R-cyclopropanesulfonylaminocarbonyl-2S-vinyl-cyclopropylcarbamoyl)-4R-(7-methoxy-2-phenyl-quinolin-4-yloxy)-pyrrolidine-1-carbonyl]-2,2-dimethyl-propyl}-carbamic acid vinyl ester] | < 50 | < 50 | 
C#CCOC(=O)N[C@H](C(=O)N1C[C@H](Oc2cc(-c3ccccc3)nc3cc(OC)ccc23)CC1C(=O)N[C@]1(C(=O)NS(=O)(=O)C2CC2)C[C@H]1C=C)C(C)(C)C (stereo partly drawn) [Compound 124, {1S-[2S-(1R-cyclopropanesulfonylaminocarbonyl-2S-vinyl-cyclopropylcarbamoyl)-4R-(7-methoxy-2-phenyl-quinolin-4-yloxy)-pyrrolidine-1-carbonyl]-2,2-dimethyl-propyl}-carbamic acid prop-2-ynyl ester] | < 50 | < 50 | 
C=C[C@@H]1C[C@]1(NC(=O)C1C[C@@H](Oc2cc(-c3ccccc3)nc3cc(OC)ccc23)CN1C(=O)[C@@H](NC(=O)OCC(C)(C)C)C(C)(C)C)C(=O)NS(=O)(=O)C1CC1 (stereo partly drawn) [Compound 125, {1S-[2S-(1R-cyclopropanesulfonylaminocarbonyl-2S-vinyl-cyclopropylcarbamoyl)-4R-(7-methoxy-2-phenyl-quinolin-4-yloxy)-pyrrolidine-1-carbonyl]-2,2-dimethyl-propyl}-carbamic acid 2,2-dimethyl-propyl ester] | < 50 | < 50 | 
C=CCOC(=O)N[C@H](C(=O)N1C[C@H](Oc2cc(-c3ccccc3)nc3cc(OC)ccc23)CC1C(=O)N[C@]1(C(=O)NS(=O)(=O)C2CC2)C[C@H]1C=C)C(C)(C)C (stereo partly drawn) [Compound 126, {1S-[2S-(1R-cyclopropanesulfonylaminocarbonyl-2S-vinyl-cyclopropylcarbamoyl)-4R-(7-methoxy-2-phenyl-quinolin-4-yloxy)-pyrrolidine-1-carbonyl]-2,2-dimethyl-propyl}-carbamic acid allyl ester] | < 50 | < 50 | 
C=C[C@@H]1C[C@]1(NC(=O)C1C[C@@H](Oc2cc(-c3ccccc3)nc3cc(OC)ccc23)CN1C(=O)[C@@H](NC(=O)OCCCC)C(C)(C)C)C(=O)NS(=O)(=O)C1CC1 (stereo partly drawn) [Compound 127, {1S-[2S-(1R-cyclopropanesulfonylaminocarbonyl-2S-vinyl-cyclopropylcarbamoyl)-4R-(7-methoxy-2-phenyl-quinolin-4-yloxy)-pyrrolidine-1-carbonyl]-2,2-dimethyl-propyl}-carbamic acid butyl ester] | < 50 | < 50 | 
C=C[C@@H]1C[C@]1(NC(=O)C1C[C@@H](Oc2cc(-c3ccccc3)nc3cc(OC)ccc23)CN1C(=O)[C@@H](Nc1ccccc1[N+](=O)[O-])C(C)(C)C)C(=O)NS(=O)(=O)C1CC1 (stereo partly drawn) [Compound 128, 1-[3,3-dimethyl-2S-(2-nitrophenylamino)-butyryl]-4R-(7-methoxy-2-phenyl-quinolin-4-yloxy)-pyrrolidine-2S-carboxylic acid (1R-cyclopropanesulfonyl-aminocarbonyl-2S-vinylcyclopropyl)amide] | < 5000 | < 5000 | 
C=C[C@@H]1C[C@]1(NC(=O)C1C[C@@H](Oc2cc(-c3ccccc3)nc3cc(OC)ccc23)CN1C(=O)[C@@H](Nc1ccncc1[N+](=O)[O-])C(C)(C)C)C(=O)NS(=O)(=O)C1CC1 (stereo partly drawn) [Compound 129, 1-[3,3-dimethyl-2S-(3-nitropyridin-4-ylamino)-butyryl]-4R-(7-methoxy-2-phenylquinolin-4-yloxy)-pyrrolidine-2S-carboxylic acid (1R-cyclopropanesulfonylaminocarbonyl-2S-vinylcyclopropyl)amide] | < 5000 | < 50000 | 
